{"source": "patent US6649797B2", "about": "“Compounds and methods of use to treat infectious diseases” (The Picower Institute for Medical Research, priority 1996, dated 2003)", "key": {"HIV-1 RT": {"biological_target": "HIV-1 RT (Human immunodeficiency virus type 1 group M subtype B, UniProt P04585)", "assay": "Enzymatic activity of HIV-1 RT in vitro", "format": "biochemical"}, "recombinant MA": {"biological_target": "T1, recombinant MA (Human immunodeficiency virus type 1 group M subtype B, UniProt P04591)", "T1 construct": "0.28 nanomoles of recombinant MA or RT [p66/p51 ] dimer", "assay": "Binding of [14C]-CNI-H0294 to recombinant MA in solution (immunoprecipitation)", "design": "species or system HIV-1", "experimental": "(§1) Twenty nmol of [^14C]-CNI-HO294 were mixed with 0.28 nmol of recombinant MA or RT (a p51/p66 heterodimer) in 40 μl of binding buffer. Samples were incubated for 2 h at 37° C. in the presence or absence of 200 nmol of unlabeled CNI-H0294. MA and RT proteins were immunoprecipitated using protein G agarose and sheep polyclonal anti-MA (αMA) or rabbit anti-RT (αRT) sera, respectively. Pre-immune sera (PI) was used as control. Bound material was eluted from protein G using 0.1 M glycine buffer [pH 2.8] and the radioactivity in the eluate was quantified in a scintillation counter.\n(§2) 0.28 nanomoles of recombinant MA or RT [p66/p51 ] dimer were mixed with 20 nmol of [^14C] CNI-HO294 (specific activity 5×10^4 cpm/nmol) and incubated 2 hr at room temperature in 40 μl of binding buffer (PBS supplemented with 1% BSA, 0.1% Tween 20, 1 μg/ml leupeptin, 1 μg/ml aprotinin, 1 mM PMSF). Sheep anti-MA or rabbit anti-RT sera (both obtained from NIH AIDS Research and Reference Reagent Program) or pre-immune control sera were then added (at 1:100 dilution) and incubation continued for another 1 hr at room temperature. Immune complexes were precipitated with protein G-agarose, washed, and then eluted with 0.1 M glycine, pH 2.8. Radioactivity of the eluate was measured in a scintillation counter."}, "HIV-1ADA": {"test_system": "HIV-1ADA", "assay": "Anti-HIV activity in primary human monocytes, day 9 (Table IX, FIG. 12C)", "format": "cell-based", "details": "Human immunodeficiency virus 1, Monocyte, 216 h"}, "[1]": {"biological_target": "T2, recombinant RT (p51/p66 heterodimer) (Human immunodeficiency virus type 1 group M subtype B, UniProt P04585)", "T2 construct": "recombinant MA or RT (a p51/p66 heterodimer)", "assay": "Binding of [14C]-CNI-H0294 to recombinant RT in solution (immunoprecipitation)", "design": "species or system HIV-1", "details": "20 nmol [14C]-CNI-H0294 with 0.28 nmol RT", "experimental": "as §1\nRecombinant RT (0.2 μM) was incubated with 3.3 μM of [^14C ]-labeled CNI-H0294 and increasing concentrations of unlabeled (cold) CNI-3094. The amount of [^14C]-CNI-H0294 that bound to RT was measured as in FIG. 11.\nas §2"}, "[2]": {"biological_target": "T3, MA associated with the HIV-1 pre-integration complex (Human immunodeficiency virus type 1 group M subtype B, UniProt P05890+P05959)", "T3 construct": "MA is made from the Gag precursor and RT is made from the Gag-Pol precursor; endogenous in cells; host or cells: cytoplasmic extract of H9 cells infected with HIV-1RF", "assay": "Reaction of [14C]CNI-H0294 with MA in HIV-1 pre-integration complexes after borohydride reduction", "format": "binding", "details": "10 μM [14C]-CNI-H0294, borohydride reduction, HIV-1-infected cell extracts", "experimental": "Cytoplasmic extracts from HIV-1RF-infected H9 cells were treated with [^14C]CNI-H0294 (10 μM). After borohydride reduction the extracts were immunoprecipitated with anti-MA (αMA), anti-IN (αIN), or pre-immune serum (PI). […] Immunoprecipitated radioactivity was quantified in a scintillation counter.\nCytoplasmic lysates prepared from HIV-1-infected cells were treated with 10 μM of [^14C]-labeled CNI-H0294 (specific activity 5×10^4 cpm/nmol) in 1 ml extraction buffer adjusted to 0.14 M NaCl. Sodium borohydride was then added to a final concentration 10 mM and samples were incubated 1 hr at room temperature prior to immunoprecipitation to reduce double bonds of Schiff bases to an irreversible secondary amine. Immunoprecipitation was performed as described above, but beads were stringently washed three times with PBS supplemented with 0.1% SDS, 1% sodium deoxycholate, 1 μg/ml each of aprotinin and leupeptin, and 1 mM PMSF.\nTo discriminate between these two possibilities, cytoplasmic extracts of HIV-1-infected cells were treated with [^14C]-CNI-H0294 and then with sodium borohydride, to reduce the reversible Schiff bases hypothesized to form between the compound and the lysines of MA NLS and convert the attached drug molecules to irreversible adducts. […] Without borohydride treatment, no radioactivity was immunoprecipitated with MA."}, "[3]": {"biological_target": "T4, karyopherin α / purified recombinant MA (Human immunodeficiency virus type 1 group M subtype B, UniProt P04591)", "T4 construct": "or to purified recombinant MA", "assay": "Binding of karyopherin α to purified recombinant MA", "format": "biochemical, HIV-1"}, "[4]": {"assay": "Pharmacokinetics in mice (plasma, HPLC)", "format": "in vivo, mouse", "details": "for AUC / Cmax / bioavailability / Tmax / A (zero time intercept of the distribution phase) / B (zero time intercept of the elimination phase) / Cltot / VD / t1/2α / t1/2β / α / β: mouse"}, "[5]": {"details": "female, ND4 Swiss Webster, plasma, ip, 50 mg/kg, vehicle DMSO/peanut oil"}, "[6]": {"details": "female, ND4 Swiss Webster, plasma, ip, 50 mg/kg, vehicle water"}, "[7]": {"details": "female, ND4 Swiss Webster, plasma, po, 50 mg/kg, vehicle DMSO/peanut oil"}, "[8]": {"details": "i.p., 50 mg/kg, vehicle DMSO/peanut oil"}}, "note": "Several values for one entry are separate records, joined by “and”; a condition that tells them apart may be missing. Equal entries are not always repeated. Where two headings read alike, the source gives them in different places.", "data": [{"smiles": "CC(=O)c1cc(Nc2cc(C)[n+](C)c(N)n2)cc(C(C)=O)c1", "note": "[CNI-0294, 2-Amino-4-(3,5-diacetylphenyl)amino-1,6-dimethylpyrimidinium chloride]", "values": [{"measurement": "block of enzymatic activity of HIV-1 RT in vitro", "setting": "HIV-1 RT; concentrations up to 50 μM", "result": "nor did it block in concentrations up to 50 μM the enzymatic activity of HIV-1 RT in vitro"}, {"measurement": "binding to recombinant MA", "setting": "recombinant MA", "result": "No binding was observed"}, {"measurement": "IC50", "setting": "HIV-1ADA", "result": 50, "unit": "nM"}, {"measurement": "CNI-H0294 immunoprecipitable with RT", "setting": "[1]", "result": "~0.34", "unit": "nmol"}, {"measurement": "radioactivity immunoprecipitable with RT", "setting": "[1]; specific activity 50,000 cpm/nmol", "result": "about 17,000 cpm"}, {"measurement": "radioactivity immunoprecipitated by anti-MA serum", "setting": "[2]", "result": "a significant amount of radioactivity was immunoprecipitated by anti-MA serum"}, {"measurement": "inhibition of binding of karyopherin α to purified recombinant MA", "setting": "[3]", "result": "did not inhibit"}, {"measurement": "AUC", "setting": "[4]; [5]", "result": 9150, "unit": "ng·h/mL"}, {"measurement": "Cmax", "setting": "[4]; [5]", "result": 18800, "unit": "ng/mL"}, {"measurement": "AUC", "setting": "[4]; [6]", "result": 8830, "unit": "ng·h/mL"}, {"measurement": "Cmax", "setting": "[4]; [6]", "result": 18900, "unit": "ng/mL"}, {"measurement": "bioavailability", "setting": "[4]; female, ND4 Swiss Webster, plasma, oral, mice, single 50 mg/kg dose, AUCoral against AUCi.p., read-out: relative bioavailability", "result": 6, "unit": "%"}, {"measurement": "AUC", "setting": "[4]; [7]", "result": 560, "unit": "ng·h/mL"}, {"measurement": "Cmax", "setting": "[4]; [7]", "result": 410, "unit": "ng/mL"}, {"measurement": "Tmax", "setting": "[4]; female, ND4 Swiss Webster, plasma, ip, i.p., 50 mg/kg, vehicle DMSO/peanut oil, read-out: tmax (converted)", "result": 5, "unit": "min"}, {"measurement": "bioavailability", "setting": "[4]; female, ND4 Swiss Webster, plasma, oral, 50 mg/kg, vehicle DMSO/peanut oil, AUCoral/AUCi.p., read-out: Bioavailability", "result": 6, "unit": "%"}, {"measurement": "Tmax", "setting": "[4]; female, ND4 Swiss Webster, plasma, oral, 50 mg/kg, vehicle DMSO/peanut oil, read-out: tmax (converted)", "result": 60, "unit": "min"}, {"measurement": "maximal plasma level", "setting": "[4]; mice, oral, single 50 mg/kg dose", "result": 0.4, "unit": "µg/mL"}, {"measurement": "maximal plasma level", "setting": "[4]; mice, single i.p. injection (50 mg/kg; CNI-1594 20 mg/kg)", "result": "18.76 µg/mL and 18.76 to 18.93 µg/mL"}, {"measurement": "A (zero time intercept of the distribution phase)", "setting": "[4]; [8]", "result": 14.00, "unit": "µg/mL"}, {"measurement": "B (zero time intercept of the elimination phase)", "setting": "[4]; [8]", "result": 0.07, "unit": "µg/mL"}, {"measurement": "Cltot", "setting": "[4]; [8]", "result": 35.35, "unit": "mL/min"}, {"measurement": "VD", "setting": "[4]; [8]", "result": 14.14, "unit": "L"}, {"measurement": "t1/2α", "setting": "[4]; [8]", "result": 37.2, "unit": "min"}, {"measurement": "t1/2β", "setting": "[4]; [8]", "result": 277, "unit": "min"}, {"measurement": "α", "setting": "[4]; [8]", "result": 1.12, "unit": "h⁻¹"}, {"measurement": "β", "setting": "[4]; [8]", "result": 0.15, "unit": "h⁻¹"}, {"measurement": "A (zero time intercept of the distribution phase)", "setting": "[4]; i.p., 50 mg/kg, vehicle water", "result": 16.07, "unit": "µg/mL"}, {"measurement": "B (zero time intercept of the elimination phase)", "setting": "[4]; i.p., 50 mg/kg, vehicle water", "result": 0.05, "unit": "µg/mL"}, {"measurement": "Cltot", "setting": "[4]; i.p., 50 mg/kg, vehicle water", "result": 62.70, "unit": "mL/min"}, {"measurement": "Tmax", "setting": "[4]; i.p., 50 mg/kg, vehicle water", "result": 5, "unit": "min"}, {"measurement": "VD", "setting": "[4]; i.p., 50 mg/kg, vehicle water", "result": 19.80, "unit": "L"}, {"measurement": "t1/2α", "setting": "[4]; i.p., 50 mg/kg, vehicle water", "result": 24, "unit": "min"}, {"measurement": "t1/2β", "setting": "[4]; i.p., 50 mg/kg, vehicle water", "result": 219, "unit": "min"}, {"measurement": "α", "setting": "[4]; i.p., 50 mg/kg, vehicle water", "result": 1.74, "unit": "h⁻¹"}, {"measurement": "β", "setting": "[4]; i.p., 50 mg/kg, vehicle water", "result": 0.19, "unit": "h⁻¹"}]}, {"smiles": "CC(=O)c1cc(Nc2cc(C)[n+](C)c(N)n2)cc(C(C)=O)c1.[I-]", "note": "[Compound No. 2, 2-amino-4-(3,5-diacetylphenyl)amino-1,6-dimethylpyrimidinium iodide]", "values": [{"measurement": "inhibition of reverse transcriptase", "setting": "HIV-1 RT; data not shown", "result": "does not inhibit reverse transcriptase"}, {"measurement": "Dose", "setting": "[4]; calculated from clearance for target serum conc. (No. 2: 10 nM; No. 11: 50 nM; No. 15: 15 nM)", "result": 6.80, "unit": "mg/Kg day"}]}]}
